Experimental data from patent US20040229947A1, “Method of treating hyperactive bladder using phenoxyacetic acid derivatives” (KISSEI PHARMACEUTICAL CO., LTD., priority 2003, published 2004).
Values belong to the molecule of their own block, whether it stands above or below them.

How the values were obtained:
[1] = system: PGE2-induced bladder hyperactivity; assay: Prostaglandin (PG) E2-induced rat overactive bladder model, cystometrogram in conscious rats; type: in vivo; conditions: intragastric, 0.1, 1 or 10 mg/kg as free body, 1, 2, 4 hours after administration
Procedure: Rats were anesthetized with pentobarbital sodium. Each cannula was implanted into the urinary bladder and stomach, tunneled subcutaneously and secured on the back of the neck and closed. Seven days after the cannula implantation, cystometrogram of the freely-moved conscious rats were measured. Saline was continuously instilled into the bladder at a rate of 6 mL/hour, and after the cystometric parameters were stabilized, PGE2 (60 μmol/L)-containing saline was instilled continuously instead of the saline into the bladder. After the stable shortening of the micturition interval was confirmed under the condition, ethyl(−)-2-[4-(2-{[(1S,2R)-2-hydroxy-2-(4-hydroxyphenyl) -1-methylethyl]amino}ethyl)-2,5-dimethylphenoxy] acetate hydrochloride (0 (vehicle), 0.1, 1 or 10 mg/kg as doses of the free body) was administered intragastrically. Cystometric parameters were measured for 4 hours after the administration and were expressed as a percentage to those at the pre-administration (0 hour).

[2] = system: lower urinary tract partially obstructed overactive bladder; assay: Lower urinary tract partially obstructed rat overactive bladder model, cystometrogram; type: in vivo; conditions: intragastric
Procedure: Rats were anesthetized with pentobarbital sodium. After urethra was ligated with a tube (width: 1 mm) by thread, the tube was removed. Six weeks after the lower urinary tract operation, the implanted thread was removed, and each cannula was implanted into the urinary bladder and stomach, tunneled subcutaneously and secured on the back of the neck and closed. The next day, cystometrogram of freely-moved conscious rats were measured. Saline was instilled into the urinary bladder at a rate of 12 mL/hour. The saline instillation was stopped every micturition. After the stable spontaneous small bladder contraction in filling phase was confirmed, ethyl (−)-2-[4-(2-{[(1S,2R)-2-hydroxy-2-(4-hydroxyphenyl)-1-methylethyl]amino}ethyl)-2,5-dimethylphenoxy] acetate hydrochloride (0 (vehicle), 1 or 10 mg/kg as doses of free body) or tolterodine (10 mg/kg) was administered intragastrically. The micturition parameters at 1 hour after the administration of ethyl (−)-2-[4-(2-{[(1S,2R)-2-hydroxy-2-(4-hydroxyphenyl)-1-methylethyl]amino}ethyl)-2,5-dimethylphenoxy] acetate hydrochloride or tolterodine were measured and were expressed as a percentage to that at the pre-administration (0 hour).

[3] = system: spinal cord injury-induced overactive bladder; assay: Spinal cord injury-induced overactive bladder model, cystometrogram; type: in vivo, rat; conditions: intragastric, 10 mg/kg as free body; 1 hour after administration; FIG. 7
Procedure: In ether anesthetized rats, spinal transactions were performed at the level of Th9-Th10. Each rat was treated with amikacin 10 mg/body, i.m. for 7 days, and micturition management was done 2 times/day for 2 weeks to prevent over-distension of the bladder. About 6 weeks after the spinal cord operation, rats were anesthetized with pentobarbital sodium and each cannula (PE-50: Nihon Becton Dickinson) was implanted into the urinary bladder and stomach, tunneled subcutaneously, secured on the back of the neck and closed. Seven days after the cannula implantation, cystometrogram was performed. Saline was instilled into the urinary bladder at a rate of 12 mL/hour. The saline instillation was stopped every micturition. After the stable spontaneous small bladder contraction in filling phase was confirmed, ethyl (—)-2-[4-(2-{[(1S,2R)-2-hydroxy-2-(4-hydroxyphenyl)-1-methylethyl]amino}ethyl)-2,5-dimethylphenoxy] acetate hydrochloride (0 (vehicle) or 10 mg/kg as dose of free body) was administered intragastrically. The micturition parameter at 1 hour after the administration of ethyl (−)-2-[4-(2-{[(1S,2R)-2-hydroxy-2-(4-hydroxyphenyl)-1-methylethyl]amino}ethyl)-2,5-dimethylphenoxy] acetate hydrochloride was measured and was expressed as a percentage to that at the pre-administration (0 hour).

isolated monkey detrusor = assay: Effects on the tone of the isolated monkey detrusor (Magnus method); conditions: isolated cynomolgus monkey detrusor; for EC50: Primates, read-out: EC50, reduction of the tone of the isolated monkey detrusor
Procedure: (§1) The detrusor of the cynomolgus monkey (both sexes) was isolated and dissected. Tracheal, atrial and urethral dissections were also prepared. Then the effect of (−)-2-[4-(2-{[(1S,2R)-2-hydroxy-2-(4-hydroxyphenyl)-1-methylethyl]amino}ethyl)-2,5-dimethylphenoxy] acetic acid on the tone of the detrusor preparation was tested. Carbachol-induced tonic contractions of the tracheal preparations, the heart rate of the atrial preparations and endothelin-1-induced tonic contractions of the urethral preparations were also investigated using the Magnus method.

isolated urethra = assay: Endothelin-1-induced tonic contraction of isolated urethral preparations; design: species or system cynomolgus monkey
Procedure: as §1

isolated trachea = assay: Carbachol-induced tonic contraction of isolated tracheal preparations (beta 2-AR-stimulated function); design: species or system cynomolgus monkey; conditions: for effect on carbachol-induced tonic contraction of the isolated trachea: beta 2-AR-stimulated function
Procedure: as §1

isolated atria = assay: Heart rate of isolated atrial preparations (beta1-AR-stimulated function); design: species or system cynomolgus monkey
Procedure: as §1

SMILES: CCOC(=O)COc1cc(C)c(CCN[C@@H](C)[C@H](O)c2ccc(O)cc2)cc1C.Cl [Compound 1, ethyl (−)-2-[4-(2-{[(1S,2R)-2-hydroxy-2-(4-hydroxyphenyl)-1-methylethyl]amino}ethyl)-2,5-dimethyl-phenoxy] acetate hydrochloride]
- micturition interval ([1]; FIGS. 1 to 3): prolonged the micturition interval
- micturition volume ([1]; FIGS. 4 to 6): increased the micturition volume dose-dependently
- amplitude of spontaneous small bladder contractions in filling phase ([2]; 1 or 10 mg/kg as free body, 1 hour after administration, FIG. 8): decreased the amplitude
- frequency of spontaneous small bladder contractions in filling phase ([2]; 1 or 10 mg/kg as free body, 1 hour after administration, FIG. 9): decreased
- micturition pressure ([2]; 1 or 10 mg/kg as free body, 1 hour after administration, FIG. 10): did not affect the micturition pressure
- potency on spontaneous small bladder contractions relative to tolterodine ([2]; tolterodine 10 mg/kg, FIGS. 8 and 9): stronger than that of tolterodine
- frequency of spontaneous small bladder contraction in filling phase [3]: decreased the frequency

SMILES: CCN(CC)CC#CCOC(=O)C(O)(c1ccccc1)C1CCCCC1 (centres unmarked) [oxybutynin]
- relaxation of the isolated monkey detrusor (isolated monkey detrusor): No significant relaxation

SMILES: CCCOC(C(=O)OC1CCN(C)CC1)(c1ccccc1)c1ccccc1 [propiverine]
- relaxation of the isolated monkey detrusor (isolated monkey detrusor): No significant relaxation

- EC50 (isolated monkey detrusor): 820 nM
SMILES: Cc1cc(OCC(=O)O)c(C)cc1CCN[C@@H](C)[C@H](O)c1ccc(O)cc1 [(−)-2-[4-(2-{[(1S,2R)-2-hydroxy-2-(4-hydroxyphenyl)-1-methylethyl]amino}ethyl)-2,5-dimethylphenoxy] acetic acid]
- effect on endothelin-1-induced tonic contraction of the isolated urethra (isolated urethra): no effect
- effect on carbachol-induced tonic contraction of the isolated trachea (isolated trachea): less effect
- detrusor selectivity compared with the trachea (isolated trachea; detrusor versus trachea): about 1200 times
- effect on heart rate of the isolated atria (isolated atria; beta1-AR-stimulated function): less effect
- detrusor selectivity compared with the atria (isolated atria; detrusor versus atria): ~80 times

SMILES: CC(C)NCC(O)c1ccc(O)c(O)c1 (centres unmarked) [isoproterenol, reference compound]
- EC50 (isolated monkey detrusor): 190 nM
- effect on carbachol-induced tonic contraction of the isolated trachea (isolated trachea): reduced the carbachol-induced tonic contraction
